From patent US10118935B2, “Melampomagnolide B dimers” (priority 2014, dated 2018)

Assays:
OVCAR-8 = assay: NCI 60 cell line five dose, Ovarian Cancer
SF-539 = assay: NCI 60 cell line five dose, CNS Cancer
T-47D = assay: NCI 60 cell line five dose, Breast Cancer
HCT-116 = assay: NCI 60 cell line five dose, Colon Cancer
BT-549 = assay: NCI 60 cell line five dose, Breast Cancer
MOLT-4 = assay: NCI 60 cell line five dose, Leukemia
UACC-62 = assay: NCI 60 cell line five dose, Melanoma
M14 = assay: NCI 60 cell line five dose, Melanoma
KM12 = assay: NCI 60 cell line five dose, Colon Cancer
HS 578T = assay: NCI 60 cell line five dose, Breast Cancer; details: for Percent Growth: HS578T
NCI-H226 = assay: NCI 60 cell line five dose, Non-Small Cell Lung Cancer
CCRF-CEM = assay: NCI 60 cell line five dose, Leukemia
HCT-15 = assay: NCI 60 cell line five dose, Colon Cancer
MDA-MB-435 = assay: NCI 60 cell line five dose, Melanoma
MDA-MB-231/ATCC = assay: NCI 60 cell line five dose, Breast Cancer
TK-10 = assay: NCI 60 cell line five dose, Renal Cancer
A498 = assay: NCI 60 cell line five dose, Renal Cancer
ACHN = assay: NCI 60 cell line five dose, Renal Cancer
MDA-MB-468 = assay: NCI 60 cell line five dose, Breast Cancer
SK-MEL-28 = assay: NCI 60 cell line five dose, Melanoma
A549/ATCC = assay: NCI 60 cell line five dose, Non-Small Cell Lung Cancer

C=C1C(=O)O[C@H]2[C@H]1CC/C(COC(=O)NCCCCNC(=O)OC/C1=C/CC[C@@]3(C)O[C@H]3[C@H]3OC(=O)C(=C)[C@@H]3CC1)=C\CC[C@@]1(C)O[C@@H]21 [JVM 3-54, bis(((1aR,7aS,10aS,10bS,E)-1a-Methyl-8-methylene-9-oxo-1a,2,3,6,7,7a,8,9,10a,10b-decahydrooxireno[2′,3′:9,10]cyclodeca[1,2-b]furan-5-yl)methyl)butane-1,4-diyldicarbamate]
GI50 (OVCAR-8): 2180 nM
TGI (OVCAR-8): 8.26 µM
Percent Growth (OVCAR-8; Log10 Concentration −4.0): −78%
Percent Growth (OVCAR-8; Log10 Concentration −5.0): −7%
Percent Growth (OVCAR-8; Log10 Concentration −6.0): 79%
Percent Growth (OVCAR-8; Log10 Concentration −7.0): 99%
Percent Growth (OVCAR-8; Log10 Concentration −8.0): 99%
CC50 (OVCAR-8; read-out: LC50): 40.2 µM
GI50 (SF-539): 1550 nM
TGI (SF-539): 3.71 µM
Percent Growth (SF-539; Log10 Concentration −4.0): −100%
Percent Growth (SF-539; Log10 Concentration −5.0): −57%
Percent Growth (SF-539; Log10 Concentration −6.0): 75%
Percent Growth (SF-539; Log10 Concentration −7.0): 93%
Percent Growth (SF-539; Log10 Concentration −8.0): 103%
CC50 (SF-539; read-out: LC50): 8.84 µM
GI50 (T-47D): 1510 nM
TGI (T-47D): 4.17 µM
Percent Growth (T-47D; Log10 Concentration −4.0): −32%
Percent Growth (T-47D; Log10 Concentration −5.0): −43%
Percent Growth (T-47D; Log10 Concentration −6.0): 70%
Percent Growth (T-47D; Log10 Concentration −7.0): 93%
Percent Growth (T-47D; Log10 Concentration −8.0): 95%
CC50 (T-47D; read-out: LC50): > 100 µM
GI50 (HCT-116): 1120 nM
TGI (HCT-116): 2.63 µM
Percent Growth (HCT-116; Log10 Concentration −4.0): −88%
Percent Growth (HCT-116; Log10 Concentration −5.0): −78%
Percent Growth (HCT-116; Log10 Concentration −6.0): 56%
Percent Growth (HCT-116; Log10 Concentration −7.0): 85%
Percent Growth (HCT-116; Log10 Concentration −8.0): 99%
CC50 (HCT-116; read-out: LC50): 6.19 µM
GI50 (BT-549): 1600 nM
TGI (BT-549): 3.63 µM
Percent Growth (BT-549; Log10 Concentration −4.0): −98%
Percent Growth (BT-549; Log10 Concentration −5.0): −62%
Percent Growth (BT-549; Log10 Concentration −6.0): 79%
Percent Growth (BT-549; Log10 Concentration −7.0): 91%
Percent Growth (BT-549; Log10 Concentration −8.0): 100%
GI50 (MOLT-4): 1470 nM
TGI (MOLT-4): 4.15 µM
Percent Growth (MOLT-4; Log10 Concentration −4.0): −41%
Percent Growth (MOLT-4; Log10 Concentration −5.0): −42%
Percent Growth (MOLT-4; Log10 Concentration −6.0): 68%
Percent Growth (MOLT-4; Log10 Concentration −7.0): 98%
Percent Growth (MOLT-4; Log10 Concentration −8.0): 98%
CC50 (MOLT-4; read-out: LC50): > 100 µM
GI50 (UACC-62): 753 nM
TGI (UACC-62): 2.5 µM
Percent Growth (UACC-62; Log10 Concentration −4.0): −86%
Percent Growth (UACC-62; Log10 Concentration −5.0): −67%
Percent Growth (UACC-62; Log10 Concentration −6.0): 44%
Percent Growth (UACC-62; Log10 Concentration −7.0): 93%
Percent Growth (UACC-62; Log10 Concentration −8.0): 95%
CC50 (UACC-62; read-out: LC50): 7.06 µM
GI50 (M14): 1970 nM
TGI (M14): 4.82 µM
Percent Growth (M14; Log10 Concentration −4.0): −84%
Percent Growth (M14; Log10 Concentration −5.0): −41%
Percent Growth (M14; Log10 Concentration −6.0): 88%
Percent Growth (M14; Log10 Concentration −7.0): 88%
Percent Growth (M14; Log10 Concentration −8.0): 94%
CC50 (M14; read-out: LC50): 16.3 µM
GI50 (KM12): 3.18 µM
TGI (KM12): 10.5 µM
Percent Growth (KM12; Log10 Concentration −4.0): −80%
Percent Growth (KM12; Log10 Concentration −5.0): 2%
Percent Growth (KM12; Log10 Concentration −6.0): 99%
Percent Growth (KM12; Log10 Concentration −7.0): 100%
Percent Growth (KM12; Log10 Concentration −8.0): 102%
CC50 (KM12; read-out: LC50): 43.3 µM
GI50 (HS 578T; HS 578T): 2540 nM
TGI (HS 578T; HS 578T): 8.14 µM
Percent Growth (HS 578T; Log10 Concentration −4.0): −27%
Percent Growth (HS 578T; Log10 Concentration −5.0): −9%
Percent Growth (HS 578T; Log10 Concentration −6.0): 90%
Percent Growth (HS 578T; Log10 Concentration −7.0): 92%
Percent Growth (HS 578T; Log10 Concentration −8.0): 90%
GI50 (NCI-H226): 11.4 µM
TGI (NCI-H226): 30.5 µM
Percent Growth (NCI-H226; Log10 Concentration −4.0): −60%
Percent Growth (NCI-H226; Log10 Concentration −5.0): 57%
Percent Growth (NCI-H226; Log10 Concentration −6.0): 100%
Percent Growth (NCI-H226; Log10 Concentration −7.0): 97%
Percent Growth (NCI-H226; Log10 Concentration −8.0): 98%
CC50 (NCI-H226; read-out: LC50): 81.6 µM
GI50 (CCRF-CEM): 272 nM
TGI (CCRF-CEM): 845 nM
Percent Growth (CCRF-CEM; Log10 Concentration −4.0): −50%
Percent Growth (CCRF-CEM; Log10 Concentration −5.0): −46%
Percent Growth (CCRF-CEM; Log10 Concentration −6.0): −7%
Percent Growth (CCRF-CEM; Log10 Concentration −7.0): 94%
Percent Growth (CCRF-CEM; Log10 Concentration −8.0): 98%
CC50 (CCRF-CEM; read-out: LC50): > 100 µM
GI50 (HCT-15): 5.61 µM
TGI (HCT-15): 20.8 µM
Percent Growth (HCT-15; Log10 Concentration −4.0): 79%
Percent Growth (HCT-15; Log10 Concentration −5.0): 37%
Percent Growth (HCT-15; Log10 Concentration −6.0): 90%
Percent Growth (HCT-15; Log10 Concentration −7.0): 94%
Percent Growth (HCT-15; Log10 Concentration −8.0): 96%
CC50 (HCT-15; read-out: LC50): 56.3 µM
GI50 (MDA-MB-435): 1240 nM
TGI (MDA-MB-435): 3.41 µM
Percent Growth (MDA-MB-435; Log10 Concentration −4.0): −97%
Percent Growth (MDA-MB-435; Log10 Concentration −5.0): −53%
Percent Growth (MDA-MB-435; Log10 Concentration −6.0): 60%
Percent Growth (MDA-MB-435; Log10 Concentration −7.0): 82%
Percent Growth (MDA-MB-435; Log10 Concentration −8.0): 100%
CC50 (MDA-MB-435; read-out: LC50): 9.42 µM
GI50 (MDA-MB-231/ATCC): 1530 nM
TGI (MDA-MB-231/ATCC): 3.24 µM
Percent Growth (MDA-MB-231/ATCC; Log10 Concentration −4.0): −85%
Percent Growth (MDA-MB-231/ATCC; Log10 Concentration −5.0): −76%
Percent Growth (MDA-MB-231/ATCC; Log10 Concentration −6.0): 79%
Percent Growth (MDA-MB-231/ATCC; Log10 Concentration −7.0): 104%
Percent Growth (MDA-MB-231/ATCC; Log10 Concentration −8.0): 103%
GI50 (TK-10): 1610 nM
TGI (TK-10): 4.12 µM
Percent Growth (TK-10; Log10 Concentration −4.0): −99%
Percent Growth (TK-10; Log10 Concentration −5.0): −47%
Percent Growth (TK-10; Log10 Concentration −6.0): 75%
Percent Growth (TK-10; Log10 Concentration −7.0): 93%
Percent Growth (TK-10; Log10 Concentration −8.0): 97%
CC50 (TK-10; read-out: LC50): 11.3 µM
GI50 (A498): 6.36 µM
TGI (A498): 18.9 µM
Percent Growth (A498; Log10 Concentration −4.0): −99%
Percent Growth (A498; Log10 Concentration −5.0): 38%
Percent Growth (A498; Log10 Concentration −6.0): 99%
Percent Growth (A498; Log10 Concentration −7.0): 94%
Percent Growth (A498; Log10 Concentration −8.0): 97%
CC50 (A498; read-out: LC50): 43.9 µM
GI50 (ACHN): 3.44 µM
TGI (ACHN): 12.9 µM
Percent Growth (ACHN; Log10 Concentration −4.0): −91%
Percent Growth (ACHN; Log10 Concentration −5.0): 11%
Percent Growth (ACHN; Log10 Concentration −6.0): 95%
Percent Growth (ACHN; Log10 Concentration −7.0): 97%
Percent Growth (ACHN; Log10 Concentration −8.0): 100%
CC50 (ACHN; read-out: LC50): 39.8 µM
GI50 (MDA-MB-468): 426 nM
TGI (MDA-MB-468): 2 µM
Percent Growth (MDA-MB-468; Log10 Concentration −4.0): −69%
Percent Growth (MDA-MB-468; Log10 Concentration −5.0): −59%
Percent Growth (MDA-MB-468; Log10 Concentration −6.0): 26%
Percent Growth (MDA-MB-468; Log10 Concentration −7.0): 91%
Percent Growth (MDA-MB-468; Log10 Concentration −8.0): 92%
CC50 (MDA-MB-468; read-out: LC50): 7.76 µM
GI50 (SK-MEL-28): 529 nM
TGI (SK-MEL-28): 2.3 µM
Percent Growth (SK-MEL-28; Log10 Concentration −4.0): −73%
Percent Growth (SK-MEL-28; Log10 Concentration −5.0): −58%
Percent Growth (SK-MEL-28; Log10 Concentration −6.0): 33%
Percent Growth (SK-MEL-28; Log10 Concentration −7.0): 94%
Percent Growth (SK-MEL-28; Log10 Concentration −8.0): 100%
CC50 (SK-MEL-28; read-out: LC50): 8.08 µM
GI50 (A549/ATCC): 8.02 µM
TGI (A549/ATCC): 23.1 µM
Percent Growth (A549/ATCC; Log10 Concentration −4.0): −79%
Percent Growth (A549/ATCC; Log10 Concentration −5.0): 45%
Percent Growth (A549/ATCC; Log10 Concentration −6.0): 99%
Percent Growth (A549/ATCC; Log10 Concentration −7.0): 99%
Percent Growth (A549/ATCC; Log10 Concentration −8.0): 100%
CC50 (A549/ATCC; read-out: LC50): 58.7 µM
